Measured values taken from US5110976A, “Insecticidal composition comprising more than one active ingredient” (priority 1985, dated 1992).

Columns and labels:
Acanthoscelides obtectus [1] = experiment: Impregnated filter paper disc contact test, mortality (Table 1); assay type: in vivo, bean weevil (Acanthoscelides obtectus), imago; conditions: for mortality at 20 µg/disc / mortality at 70 µg/disc / mortality at 220 µg/disc / mortality at 670 µg/disc / mortality at 2000 µg/disc / mortality at 6000 µg/disc: Acanthoscelides obtectus, 24 hours, Abbot corrected; for mortality at 20 µg/disc: 0.02 mg/disc; for mortality at 70 µg/disc: 0.07 mg/disc; for mortality at 220 µg/disc: 0.22 mg/disc; for mortality at 670 µg/disc: 0.67 mg/disc; for mortality at 2000 µg/disc: 2.0 mg/disc; for mortality at 6000 µg/disc: 6.0 mg/disc
Description: (§1) The stereoisomers are dissolved in a 1:2 mixture of mineral oil and acetone and filter paper discs (Whatman No. 1., diameter 9 cm) are impregnated with the corresponding dosage of the solution of the active ingredient. The acetone is allowed to evaporate and the insects are examined on filter paper discs placed into Petri-dishes. Three parallels are used for each dose and 15 animals are placed in each Petri-dish. Mortality rate is determined after 24 hours. The corrected mortality % data are calculated by means of the Abbot formula.

tribolium confusum = experiment: as above; assay type: in vivo, flour-beetle (tribolium confusum), imago; conditions: for mortality at 20 µg/disc / mortality at 70 µg/disc / mortality at 220 µg/disc / mortality at 670 µg/disc / mortality at 2000 µg/disc / mortality at 6000 µg/disc: Tribolium confusum, 24 hours, Abbot corrected; for mortality at 20 µg/disc: 0.02 mg/disc; for mortality at 70 µg/disc: 0.07 mg/disc; for mortality at 220 µg/disc: 0.22 mg/disc; for mortality at 670 µg/disc: 0.67 mg/disc; for mortality at 2000 µg/disc: 2.0 mg/disc; for mortality at 6000 µg/disc: 6.0 mg/disc
Description: as §1

A. matricariae = experiment: Residual contact test on adults (Table 4); assay type: in vivo, Aphidinus matricariae, adult females
Description: Adults of A. matricariae are exposed to residues of the active ingredients freshly applied on glass plates forming cages then the survivors are counted.
Treatments: test products(s) and control treated with water.
Replicates: at least 3. Plot size (net) 1 cage.
Parasites of known age 24 hours are used.
The products are applied at 5-1 ppm concentration, to each of the glass plates.
10 females of A. matricariae are introduced into each cage and supplied with honey as food. The number of females surviving exposure is determined after 1.5 and 24 hours, in independent runs. Total number of survivors is calculated for each cage.

T. confusum = experiment: Filter paper contact test with piperonyl butoxide (Table 7); assay type: in vivo, confused flour-beetle (T. confusum), imagos; conditions: for mortality at 25 µg/disc / mortality at 50 µg/disc / mortality at 100 µg/disc / mortality at 200 µg/disc / mortality at 400 µg/disc: Tribolium confusum, 24 h, PBO, where added, 0.5 mg/disc; for mortality at 25 µg/disc: 0.025 mg/disc; for mortality at 50 µg/disc: 0.05 mg/disc; for mortality at 100 µg/disc: 0.1 mg/disc; for mortality at 200 µg/disc: 0.2 mg/disc; for mortality at 400 µg/disc: 0.4 mg/disc
Description: as §1
T. confusum (confused flour-beetle) imagos are treated according to Example 20 and percental mortality is determined after 24 hours. The dose of piperonyl butoxide (referred to furtheron as "[…]") amounts to 0.5 mg/disc The results are disclosed in Table 7.

[2] = Acute toxicity on rats and selectivity index; conditions: rat, in vivo; for LD50: po, rats, p.o., read-out: approximate LD50 toxicity; for selectivity ratio: quotient of approximate LD50 values on rats and house fly
Description: (§2) The said selectivity index of the enantiomer-pair Ia amounts to 50/0.45=111.
(§3) In addition to the synergistic effect the composition of the present invention has a number of further advantages too and for this reason it is an outstanding product. It is very important that the compositions of the present invention are less toxical towards mammals than the hitherto known compositions of similar efficiency. […] The said selectivity index of Ia amounts to 50/0.45=111.

house fly = experiment: Topical LD50 on house fly (mg/kg); assay type: in vivo; conditions: Musca domestica, approximate, topically
Description: as §2, §3

L. decemlineata = experiment: 5 EC formulations sprayed on glass plates (Table 20); assay type: in vivo, imagos; conditions: 5 EC formulation, 48 hours
Description: (§4) The 5 EC formulations prepared according to Example 42 are diluted 50x, 100x, 200x, 400x, 800x and 1600x with water and 0.5 ml doses are sprayed onto glass plates. After drying 10 L. decemlineata imagos are placed on each glass plate and the insects are covered with Petri-dishes. The tests are carried out by using 6 doses and 3 parallels for each dose. The killed insects are counted after 48 hours.

Acanthoscelides obtectus [3] = experiment: 5 EC formulations sprayed on glass plates (Table 21); assay type: in vivo, bean weevil (Acanthoscelides obtectus), imagos; conditions: 5 EC formulation, 24 hours
Description: as §4
Glass plates are sprayed with 5 EC formulations prepared according to Example 42 in an analogous manner to Example 52. After drying 10 bean weevil (Acanthoscelides obtectus) imagos are placed on each plate and the insects are covered with Petri-dishes. The killed insects are counted after 24 hours. The test is carried out with 6 doses by using 3 parallels for each dose.

Myzus persicae = experiment: 5 EC formulations on aphid-infected bean plants (Table 22); assay type: in vivo, green peach aphids (Myzus persicae)
Description: 15 bean plants infected with green peach aphids (Myzus persicae) at 6 days' age are cultivated in each pot. At 12 days' age the strongly and uniformly infected plants are selected and sprayed to run-off with emulsions freshly prepared from the formulation according to Example 42. Treatments are carried out with three doses (active ingredient 2.5, 5 and 10 ppm) and four parallels are used (one pot per parallel). The second, fourth and eighth day after treatment the aphids are swept down from the plants to a white paper with a fine brush and the live insects are counted.

[4] = tested on: Leptinotarsa decemlineara larvae; experiment: Paralysis of larvae on sprayed tomato plants (Table 23); assay type: in vivo, L3 stage larvae; conditions: 6 hours
Description: Tomato plants pre-cultivated in pots are sprayed with a suspension of the active ingredient formed with a mixture of acetone and water. The treated plants are placed into isolators and infected with L3 stage Leptinotarsa decemlineara larvae. The percental ratio of paralyzed larvae which fall down from the plants is determined after 6 hours.

Aphidinus matricariae = experiment: Residual contact test on adults (Table 25); assay type: in vivo, adult females
Description: Residual contact test on adults of Aphidinus matricariae. Adults of A. matricariae are exposed to residues of the active ingredients freshly applied on glass plates forming cages, then the survivors are counted.
Treatment: test product and control treated with water.
Replicates: at least 3. Plot size (net): 1 cage.
Parasites of known age (24 hours) are used. […]
10 females of A. matricariae are introduced into each cage and supplied with honey as food. The number of females surviving exposure is determined after 1, 5 and 24 hours, in independent runs. Total number of survivors is calculate for each cage.

[5] = 2.5 ppm, 2 days after treatment (control 1850)
[6] = 2.5 ppm, 4 days after treatment (control 2780)
[7] = 2.5 ppm, 8 days after treatment (control 4120)
[8] = 5.0 ppm, 2 days after treatment (control 1850)
[9] = 5.0 ppm, 4 days after treatment (control 2780)
[10] = 5.0 ppm, 8 days after treatment (control 4120)
[11] = 10.0 ppm, 2 days after treatment (control 1850)
[12] = 10.0 ppm, 4 days after treatment (control 2780)
[13] = 10.0 ppm, 8 days after treatment (control 4120)

CC1(C)[C@H](C=C(Cl)Cl)[C@H]1C(=O)O[C@H](C#N)c1cccc(Oc2ccccc2)c1 (relative stereo) [Ib]
mortality at 20 µg/disc (Acanthoscelides obtectus [1]): 32%
mortality at 70 µg/disc (Acanthoscelides obtectus [1]): 55%
mortality at 220 µg/disc (Acanthoscelides obtectus [1]): 87%
mortality at 670 µg/disc (Acanthoscelides obtectus [1]): 100%
mortality at 2000 µg/disc (Acanthoscelides obtectus [1]): 100%
mortality at 6000 µg/disc (Acanthoscelides obtectus [1]): 100%
comparative activity (Acanthoscelides obtectus [1]; Ib versus Ia): more active than enantiomer-pair Ia
comparative activity (tribolium confusum; Ib versus Ia): more active than enantiomer-pair Ia
mortality at 20 µg/disc (tribolium confusum): 14%
mortality at 70 µg/disc (tribolium confusum): 73%
mortality at 220 µg/disc (tribolium confusum): 100%
mortality at 670 µg/disc (tribolium confusum): 100%
mortality at 2000 µg/disc (tribolium confusum): 100%
mortality at 6000 µg/disc (tribolium confusum): 100%
Mortality % (A. matricariae; 1 ppm, 1h): 0%
Mortality % (A. matricariae; 1 ppm, 5h): 75%
Mortality % (A. matricariae; 1 ppm, 24h): 88%
Mortality % (A. matricariae; 5 ppm, 1h): 100%
synergizability with piperonyl butoxide (T. confusum; Ib versus Ia): can be synergized at a higher level than isomer pair Ia
mortality at 25 µg/disc (T. confusum): 0%
mortality at 50 µg/disc (T. confusum): 10%
mortality at 100 µg/disc (T. confusum): 51%
mortality at 200 µg/disc (T. confusum): 85%
mortality at 400 µg/disc (T. confusum): 100%
LD50 [2]: ~5000 mg/kg
selectivity ratio [2]: 7800
LD50 (house fly): ~0.64 mg/kg

CC1(C)[C@H](C(=O)O[C@H](C#N)c2cccc(Oc3ccccc3)c2)[C@@H]1C=C(Cl)Cl (relative stereo) [Ia]
mortality at 20 µg/disc (Acanthoscelides obtectus [1]): 10%
mortality at 70 µg/disc (Acanthoscelides obtectus [1]): 37%
mortality at 220 µg/disc (Acanthoscelides obtectus [1]): 63%
mortality at 670 µg/disc (Acanthoscelides obtectus [1]): 100%
mortality at 2000 µg/disc (Acanthoscelides obtectus [1]): 100%
mortality at 6000 µg/disc (Acanthoscelides obtectus [1]): 100%
mortality at 20 µg/disc (tribolium confusum): 0%
mortality at 70 µg/disc (tribolium confusum): 18%
mortality at 220 µg/disc (tribolium confusum): 51%
mortality at 670 µg/disc (tribolium confusum): 100%
mortality at 2000 µg/disc (tribolium confusum): 100%
mortality at 6000 µg/disc (tribolium confusum): 100%
Mortality % (A. matricariae; 1 ppm, 1h): 100%
Mortality % (A. matricariae; 1 ppm, 5h): 100%
Mortality % (A. matricariae; 1 ppm, 24h): 96%
Mortality % (A. matricariae; 5 ppm, 1h): 100%
mortality at 25 µg/disc (T. confusum): 0%
mortality at 50 µg/disc (T. confusum): 0%
mortality at 100 µg/disc (T. confusum): 12%
mortality at 200 µg/disc (T. confusum): 53%
mortality at 400 µg/disc (T. confusum): 96%
Mortality % (L. decemlineata; dilution 50x): 97%
Mortality % (L. decemlineata; dilution 100x): 87%
Mortality % (L. decemlineata; dilution 200x): 63%
Mortality % (L. decemlineata; dilution 400x): 53%
Mortality % (L. decemlineata; dilution 800x): 27%
Mortality % (L. decemlineata; dilution 1600x): 0%
Mortality % (Acanthoscelides obtectus [3]; dilution 50x): 70%
Mortality % (Acanthoscelides obtectus [3]; dilution 100x): 50%
Mortality % (Acanthoscelides obtectus [3]; dilution 200x): 33%
Mortality % (Acanthoscelides obtectus [3]; dilution 400x): 27%
Mortality % (Acanthoscelides obtectus [3]; dilution 800x): 13%
Mortality % (Acanthoscelides obtectus [3]; dilution 1600x): 0%
Average number of aphids per pot (Myzus persicae; [5]): 44
Average number of aphids per pot (Myzus persicae; [6]): 83
Average number of aphids per pot (Myzus persicae; [7]): 245
Average number of aphids per pot (Myzus persicae; [8]): 22
Average number of aphids per pot (Myzus persicae; [9]): 29
Average number of aphids per pot (Myzus persicae; [10]): 90
Average number of aphids per pot (Myzus persicae; [11]): 8
Average number of aphids per pot (Myzus persicae; [12]): 17
Average number of aphids per pot (Myzus persicae; [13]): 30
% ratio of paralyzed larvae ([4]; 8 ppm): 18%
% ratio of paralyzed larvae ([4]; 40 ppm): 46%
% ratio of paralyzed larvae ([4]; 200 ppm): 100%
% ratio of paralyzed larvae ([4]; 1000 ppm): 100%
Mortality % (Aphidinus matricariae; 1 ppm, 1h): 100%
Mortality % (Aphidinus matricariae; 1 ppm, 5h): 100%
Mortality % (Aphidinus matricariae; 1 ppm, 24h): 96%
Mortality % (Aphidinus matricariae; 5 ppm, 1h): 100%
LD50 [2]: ~50 mg/kg
selectivity ratio [2]: 111
LD50 (house fly): ~0.45 mg/kg

CC1(C)C(C=C(Cl)Cl)C1C(=O)OC(C#N)c1cccc(Oc2ccccc2)c1 (stereo not shown) [Ia:Ib = 4:6]
Mortality % (L. decemlineata; dilution 50x, 2880 min): 93%
Mortality % (L. decemlineata; dilution 100x, 2880 min): 80%
Mortality % (L. decemlineata; dilution 200x, 2880 min): 73%
Mortality % (L. decemlineata; dilution 400x, 2880 min): 53%
Mortality % (L. decemlineata; dilution 800x, 2880 min): 33%
Mortality % (L. decemlineata; dilution 1600x): 0%
Mortality % (Acanthoscelides obtectus [3]; dilution 50x, 1440 min): 70%
Mortality % (Acanthoscelides obtectus [3]; dilution 100x, 1440 min): 53%
Mortality % (Acanthoscelides obtectus [3]; dilution 200x, 1440 min): 37%
Mortality % (Acanthoscelides obtectus [3]; dilution 400x, 1440 min): 30%
Mortality % (Acanthoscelides obtectus [3]; dilution 800x, 1440 min): 17%
Mortality % (Acanthoscelides obtectus [3]; dilution 1600x, 1440 min): 10%
Average number of aphids per pot (Myzus persicae; [5]): 38
Average number of aphids per pot (Myzus persicae; [6]): 71
Average number of aphids per pot (Myzus persicae; [7]): 251
Average number of aphids per pot (Myzus persicae; [8]): 21
Average number of aphids per pot (Myzus persicae; [9]): 32
Average number of aphids per pot (Myzus persicae; [10]): 82
Average number of aphids per pot (Myzus persicae; [11]): 10
Average number of aphids per pot (Myzus persicae; [12]): 11
Average number of aphids per pot (Myzus persicae; [13]): 21
% ratio of paralyzed larvae ([4]; 8 ppm): 60%
% ratio of paralyzed larvae ([4]; 40 ppm): 75%
% ratio of paralyzed larvae ([4]; 200 ppm): 100%
% ratio of paralyzed larvae ([4]; 1000 ppm): 100%
Mortality % (Aphidinus matricariae; 1 ppm, 1h): 50%
Mortality % (Aphidinus matricariae; 1 ppm, 5h): 90%
Mortality % (Aphidinus matricariae; 1 ppm, 24h): 63%
Mortality % (Aphidinus matricariae; 5 ppm, 1h): 100%
